{"source": "patent US12415844B2", "about": "“BCMA specific VCAR compositions and methods for use” (Poseida Therapeutics, Inc., priority 2017, dated 2025)", "key": {"cells [1]": {"system": "cells", "experiment": "AP1903 amount needed in vitro for effective signaling of cells", "assay_type": "cell-based", "details": "equates to 10-100 nM", "experimental": "The fixed dose of AP1903 for injection used, for example, may be 0.4 mg/kg intravenously infused over 2 hours. The amount of AP1903 needed in vitro for effective signaling of cells is 10-100 nM (1600 Da MW). This equates to […] or […]. Doses up to 1 mg/kg were well tolerated in the Phase I study of AP1903 described above. Therefore, 0.4 mg/kg may be a safe and effective dose of AP1903 for this Phase I study in combination with the therapeutic cells."}, "cells [2]": {"system": "cells", "details": "cited from earlier work"}, "[3]": {"details": "cited from earlier work"}}, "note": "Like-named read-outs stand apart in the source and are kept apart here."}
{"compound": "CC[C@H](C(=O)N1CCCC[C@H]1C(=O)O[C@H](CCc1ccc(OC)c(OC)c1)c1cccc(OCC(=O)NCCNC(=O)COc2cccc([C@@H](CCc3ccc(OC)c(OC)c3)OC(=O)[C@@H]3CCCCN3C(=O)[C@@H](CC)c3cc(OC)c(OC)c(OC)c3)c2)c1)c1cc(OC)c(OC)c(OC)c1", "note": "(relative stereo) [AP1903, 2-Piperidinecarboxylic acid, 1-[(2S)-1-oxo-2-(3,4,5-trimethoxyphenyl)butyl]-, 1,2-ethanediylbis[imino(2-oxo-2,1-ethanediyl)oxy-3,1-phenylene[(1R)-3-(3,4-dimethoxyphenyl)propylidene]]ester, [2S-[1(R*),2R*[S*[S*[1(R*),2R*]]]]]-(9C1)]", "values": [{"measurement": "amount needed for effective signaling, converted (1600 Da MW)", "setting": "cells [1]", "result": "16 to 160", "unit": "µg/L"}, {"measurement": "amount needed in vitro for effective signaling of cells", "setting": "cells [2]", "result": "10 to 100", "unit": "nM"}, {"measurement": "plasma levels versus dose", "setting": "[3]; 0.01-1.0 mg/kg", "result": "directly proportional to dose"}, {"measurement": "plasma level as % of maximal concentration", "setting": "[3]; 0.5 hours post-dose", "result": "approximately 18%"}, {"measurement": "plasma level as % of maximal concentration", "setting": "[3]; 2 hours post-dose", "result": "~7", "unit": "%"}, {"measurement": "plasma level as % of maximal concentration", "setting": "[3]; 10 hours post-dose", "result": "~1", "unit": "%"}, {"measurement": "well tolerated doses", "setting": "[3]; Phase I study", "result": "up to 1 mg/kg"}, {"measurement": "safety and tolerability", "setting": "[3]; dose levels 0.01, 0.05, 0.1, 0.5 and 1.0 mg/kg IV over 2 hours", "result": "safe and well tolerated at all dose levels"}, {"measurement": "pharmacokinetic profile", "setting": "[3]; healthy volunteers", "result": "favorable pharmacokinetic profile"}, {"measurement": "mean Cmax", "setting": "[3]; single doses 0.01-1.0 mg/kg infused IV over 2 hours, healthy volunteers, plasma", "result": "10 to 1275", "unit": "ng/mL"}]}
